Source: PubChem BioAssay (NCI)
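The compound was tested at five concentrations on cells cultured in 96-well plates, with a 48-hour exposure period. Here, GI50 denotes the concentration required for 50% inhibition of growth. The concentration for full growth arrest is given as TGI.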

Tests used:
Test in all cases: inhibition of tumour cell growth, NCI panel, 48 h
[1] = tested on: SK-MEL-2 melanoma
[2] = tested on: SK-OV-3 ovarian
[3] = tested on: UACC-257 melanoma
[4] = tested on: NCI-H522 lung
[5] = tested on: SF-268 CNS
[6] = tested on: UACC-62 melanoma
[7] = tested on: U251 CNS
[8] = tested on: HL-60(TB) leukemia
[9] = tested on: HS 578T breast
[10] = tested on: OVCAR-5 ovarian
[11] = tested on: RXF 393 renal
[12] = tested on: UO-31 renal
[13] = tested on: M14 melanoma
[14] = tested on: MDA-MB-435
[15] = tested on: NCI-H226 lung
[16] = tested on: SW-620 colon
[17] = tested on: HOP-62 NSCLC
[18] = tested on: SK-MEL-28 melanoma
[19] = tested on: SN12C renal
[20] = tested on: SK-MEL-5 melanoma
[21] = tested on: T-47D breast
[22] = tested on: PC-3 prostate
[23] = tested on: HCT-116 colon
[24] = tested on: DU-145 prostate
[25] = tested on: NCI/ADR-RES ovarian
[26] = tested on: SNB-75 CNS
[27] = tested on: HOP-92 NSCLC
[28] = tested on: RPMI-8226 leukemia
[29] = tested on: NCI-H460 lung
[30] = tested on: BT-549 breast
[31] = tested on: LOX IMVI melanoma
[32] = tested on: K-562 leukemia
[33] = tested on: IGROV1 ovarian
[34] = tested on: MDA-MB-231 breast
[35] = tested on: SF-295 CNS
[36] = tested on: SNB-19 CNS
[37] = tested on: 786-0 renal
[38] = tested on: HCT-15 colon
[39] = tested on: KM12 colon
[40] = tested on: SR leukemia
[41] = tested on: MOLT-4 leukemia
[42] = tested on: COLO 205 colon
[43] = tested on: EKVX NSCLC
[44] = tested on: OVCAR-8 ovarian
[45] = tested on: TK-10 renal
[46] = tested on: OVCAR-4 ovarian
[47] = tested on: A549 NSCLC
[48] = tested on: OVCAR-3 ovarian
[49] = tested on: ACHN renal
[50] = tested on: CAKI-1 renal

In the case of COc1cccc(C2NC(=S)NC(C)=C2C(=O)Nc2ccc(Cl)c(Cl)c2)c1 (stereo not given), the GI50 [1] is reported as 15.7 µM, the TGI [1] is reported as over 50 µM and the GI50 [2] is reported as 21.3 µM. It also gave a TGI [2] of over 50 µM, a GI50 [3] of 12.4 µM and a TGI [3] of 28.9 µM. For the same molecule, the GI50 [4] was 18.3 µM, the TGI [4] was over 50 µM and the GI50 [5] was 9.13 µM. It also gave a TGI [5] of 18.7 µM, a GI50 [6] of 8.2 µM and a TGI [6] of 15.9 µM. For the same molecule, the GI50 [7] was over 50 µM, the TGI [7] was over 50 µM and the GI50 [8] was over 50 µM. It also gave a TGI [8] of over 50 µM, a GI50 [9] of 10.7 µM and a TGI [9] of 28.8 µM. The GI50 [10] was 28.7 µM, the TGI [10] was over 50 µM and the GI50 [11] was 9.14 µM. It also gave a TGI [11] of 22.3 µM, a GI50 [12] of 9.1 µM and a TGI [12] of 17.9 µM. For the same molecule, the GI50 [13] was 10.3 µM, the TGI [13] was 19.3 µM and the GI50 [14] was 8.22 µM. For the same molecule, the TGI [14] was 16.8 µM, the GI50 [15] was 12.1 µM and the TGI [15] was 30.7 µM. For the same molecule, the GI50 [16] was 22.3 µM, the TGI [16] was over 50 µM and the GI50 [17] was 11.6 µM. The TGI [17] was 20.3 µM, the GI50 [18] was 13.3 µM and the TGI [18] was 47.7 µM. For the same molecule, the GI50 [19] was 9.14 µM, the TGI [19] was 17.1 µM and the GI50 [20] was 8.43 µM. For the same molecule, the TGI [20] was 16.1 µM, the GI50 [21] was 14.4 µM and the TGI [21] was over 50 µM. The GI50 [22] was 14.3 µM, the TGI [22] was over 50 µM and the GI50 [23] was 8.47 µM. For the same molecule, the TGI [23] was 15.9 µM, the GI50 [24] was 0.00711 µM and the TGI [24] was 12 µM. For the same molecule, the GI50 [25] was over 50 µM, the TGI [25] was over 50 µM and the GI50 [26] was 34.8 µM. It also gave a TGI [26] of over 50 µM, a GI50 [27] of 12.5 µM and a TGI [27] of 38.7 µM. The GI50 [28] was 21 µM, the TGI [28] was over 50 µM and the GI50 [29] was 8.21 µM. It also gave a TGI [29] of 16.3 µM, a GI50 [30] of 7.15 µM and a TGI [30] of 16.8 µM. The GI50 [31] was 7.93 µM, the TGI [31] was 15.1 µM and the GI50 [32] was 16.3 µM. For the same molecule, the TGI [32] was over 50 µM, the GI50 [33] was 11.3 µM and the TGI [33] was 28.5 µM. It also gave a GI50 [34] of 9.41 µM, a TGI [34] of 19.6 µM and a GI50 [35] of 9.72 µM. It also gave a TGI [35] of 21.6 µM, a GI50 [36] of 15.6 µM and a TGI [36] of over 50 µM. It also gave a GI50 [37] of 10.7 µM, a TGI [37] of 24 µM and a GI50 [38] of 8.57 µM. It also gave a TGI [38] of 22.6 µM, a GI50 [39] of 10.1 µM and a TGI [39] of 20.5 µM. For the same molecule, the GI50 [40] was 42.6 µM, the TGI [40] was over 50 µM and the GI50 [41] was over 50 µM. The TGI [41] was over 50 µM, the GI50 [42] was 9.41 µM and the TGI [42] was 30.5 µM. The GI50 [43] was 5.63 µM, the TGI [43] was 14.3 µM and the GI50 [44] was 12.4 µM. The TGI [44] was 23.9 µM, the GI50 [45] was 12.8 µM and the TGI [45] was 28.6 µM. It also gave a GI50 [46] of 12.8 µM, a TGI [46] of over 50 µM and a GI50 [47] of 17.9 µM. The TGI [47] was over 50 µM, the GI50 [48] was 8.88 µM and the TGI [48] was 18.2 µM. The GI50 [49] was 10.1 µM, the TGI [49] was 23.2 µM and the GI50 [50] was 9.69 µM. It also gave a TGI [50] of 22 µM.
